Data on 37 molecules can be found in patent US20160158200A1, “Combinations of Hepatitis C Virus Inhibitors” (priority 2013, published 2016).

Molecules are shown by their SMILES. A value given as a limit tells only on which side of the number the result lay.

The test deals with HCV genotype-1a variant with glutamine 30 changed to glutamate in the NS5A protein. The test is classed as cell-based. Conditions: test compound titrated with BMS-790052 fixed at 200 nM; genotype 1a Q30E replicon. An excerpt:
The NS5A synergistic inhibitory effect of test compounds can be determined using various amounts of an NS5A-targeting compound with titration of a second compound of interest. […] In one embodiment, the HCV genotype strain can be genotype 1a containing a change at amino acid 30 of the NS5A protein consisting of glutamine to glutamate. The test compound can be chosen from compounds listed above or from others present in the literature.
(In general: In antiviral work, replicon cells carry a viral genome segment that copies itself.)

Consider `CC(C)C(NC(=O)C(=O)N1CCCCCC1)c1nc(-c2ccc(-c3ccc(-c4c[nH]c(C(NC(=O)C(=O)N5CCCCCC5)C(C)C)n4)cc3)cc2)c[nH]1` (stereo not shown) [Compound W-52], for which the “Fold-Synergistic 1a (Q30E)” value is given as >100 fold.
Under `CC1(C(=O)N[C@H](c2nc(-c3ccc(-c4ccc(-c5c[nH]c([C@@H](NC(=O)C6(C)COC6)C(C)(C)C)n5)cc4)cc3)c[nH]2)C(C)(C)C)COC1` [Compound N-113] stands >100 fold.
Take `CC(C)(C)COC(=O)N1CCC[C@H]1c1ncc(-c2ccc(-c3ccc(-c4cnc([C@@H]5CCCN5C(=O)OCC(C)(C)C)[nH]4)cc3)cc2)[nH]1` [Compound S-221]: the “Fold-Synergistic 1a (Q30E)” value is reported as >10 fold.
As for `CC(C)(C)C(NC(=O)C1CCC(O)CC1)c1nc(-c2ccc(-c3ccc(-c4c[nH]c(C(NC(=O)C5CCC(O)CC5)C(C)(C)C)n4)cc3)cc2)c[nH]1` (stereo not shown) [Compound W-134], the “Fold-Synergistic 1a (Q30E)” value is >100 fold.
Regarding `CC(C)(C)[C@H](NC(=O)C1CCC(F)(F)CC1)c1ncc(C#CC#Cc2cnc([C@@H](NC(=O)C3CCC(F)(F)CC3)C(C)(C)C)[nH]2)[nH]1` [Compound B66], the “Fold-Synergistic 1a (Q30E)” value is on record as >10 fold.
As to `CC(C)(C)[C@H](Nc1ncc(Br)cn1)c1nc(-c2ccc(-c3ccc(-c4c[nH]c([C@@H](Nc5ncc(Br)cn5)C(C)(C)C)n4)cc3)cc2)c[nH]1` [Compound W-16A], the “Fold-Synergistic 1a (Q30E)” value is recorded as >10 fold.
In the case of `CCOC(=O)CC1(C(=O)N[C@H](c2nc(-c3ccc(-c4ccc(-c5c[nH]c([C@@H](NC(=O)C6(NC(=O)OCC)CCCCC6)C(C)(C)C)n5)cc4)cc3)c[nH]2)C(C)(C)C)CCCCC1` [Compound W-250], the “Fold-Synergistic 1a (Q30E)” value was >100 fold.
Regarding `CC(C)[C@H](NC(=O)C1(C(C)O)CC1)c1ncc(-c2ccc(-c3ccc(-c4cnc([C@@H](NC(=O)C5(C(C)O)CC5)C(C)C)n4C)cc3)cc2)n1C` (single isomer, unassigned) [Compound B-202], the “Fold-Synergistic 1a (Q30E)” value was >10 fold.
Turning to `CC(C)(C)[C@H](NC(=O)C1(C2(O)CCC(F)(F)CC2)CC1)c1nc(-c2ccc(-c3ccc(-c4c[nH]c([C@@H](NC(=O)C5(C6(O)CCC(F)(F)CC6)CC5)C(C)(C)C)n4)cc3)cc2)c[nH]1` [Compound P-146], the “Fold-Synergistic 1a (Q30E)” value is reported as >100 fold.
Take `COC1(C(=O)C(=O)N[C@H](c2ncc(-c3ccc(-c4ccc(-c5cnc([C@@H](NC(=O)C(=O)C6(OC)CCC6)C(C)C)[nH]5)cc4)cc3)[nH]2)C(C)C)CCC1` [Compound P-116]: the “Fold-Synergistic 1a (Q30E)” value is >100 fold.
Under `COc1ccccc1C(O)CC(=O)N[C@H](c1nc(-c2ccc(-c3ccc(-c4c[nH]c([C@@H](NC(=O)C5(C(O)c6ccccc6OC)CC5)C(C)(C)C)n4)cc3)cc2)c[nH]1)C(C)(C)C` (single isomer, unassigned) [Compound N-135B] stands >100 fold; under `CC(C)(C)[C@H](NC(=O)C12CCC(O)(CC1)CC2)c1nc(-c2ccc(-c3ccc(-c4c[nH]c([C@@H](NC(=O)C56CCC(O)(CC5)CC6)C(C)(C)C)n4)cc3)cc2)c[nH]1` [Compound W-128], >100 fold.
Take `COC1(C(=O)C(=O)N[C@H](c2ncc(-c3ccc(-c4ccc(-c5cnc([C@@H](NC(=O)C(=O)C6(OC)CCC(F)(F)CC6)C(C)C)[nH]5)cc4)cc3)[nH]2)C(C)C)CCC(F)(F)CC1` [Compound P-126]: the “Fold-Synergistic 1a (Q30E)” value is >100 fold.
With `CC(C)C(NC(=O)C(=O)N(C(C)C)C1CC1)c1nc(-c2ccc(-c3ccc(-c4c[nH]c(C(NC(=O)C(=O)N(C(C)C)C5CC5)C(C)C)n4)cc3)cc2)c[nH]1` (stereo not shown) [Compound W-55] the figure was >100 fold; with `CC(C)(C)[C@H](NC(=O)C1(C2(O)CCC(F)(F)CC2)CC1)c1ncc(-c2ccc(-c3ccc4nc([C@@H](NC(=O)C5(C6(O)CCC(F)(F)CC6)CC5)C(C)(C)C)[nH]c4c3)cc2)[nH]1` [Compound B58B], >100 fold; with `CC(C)[C@H](NC(=O)[C@H](NC(=O)OCC(C)(C)C)C(C)C)c1ncc(-c2ccc(-c3ccc(-c4cnc([C@@H](NC(=O)[C@H](NC(=O)OCC(C)(C)C)C(C)C)C(C)C)[nH]4)cc3)cc2)[nH]1` [Compound S-253], >100 fold.
Under `Cc1cc(C(=O)N[C@H](c2ncc(-c3ccc(-c4ccc(-c5cnc([C@@H](NC(=O)c6cc(C)on6)C(C)C)[nH]5)cc4)cc3)[nH]2)C(C)C)no1` [Compound S-18] stands >100 fold.
As to `CC(C)[C@H](NC(=O)CCC(C)(C)C)c1ncc(-c2ccc(-c3ccc(-c4cnc([C@@H](NC(=O)CCC(C)(C)C)C(C)C)[nH]4)cc3)cc2)[nH]1` [Compound P-81], the “Fold-Synergistic 1a (Q30E)” value is >100 fold.
Under `CC(C)C(NC(=O)C1(N2CCC(F)(F)CC2)COC1)c1nc(-c2ccc(-c3ccc(-c4c[nH]c(C(NC(=O)C5(N6CCC(F)(F)CC6)COC5)C(C)C)n4)cc3)cc2)c[nH]1` (stereo not shown) [Compound W-64] stands >100 fold; under `CCN(CC)S(=O)(=O)NC(c1nc(-c2ccc(-c3ccc(-c4c[nH]c(C(NS(=O)(=O)N(CC)CC)C(C)(C)C)n4)cc3)cc2)c[nH]1)C(C)(C)C` [Compound L-121], >100 fold.
With `CC(C)(C)C(NC(=O)C(C)(C)C1CCC(F)(F)CO1)c1nc(-c2ccc(-c3ccc(-c4c[nH]c(C(NC(=O)C(C)(C)C5CCC(F)(F)CO5)C(C)(C)C)n4)cc3)cc2)c[nH]1` (mixture of isomers) [Compound P-155], the “Fold-Synergistic 1a (Q30E)” value was >100 fold.
With `CC(C)(C)[C@H](NC(=O)C1(CO)CC(F)(F)C1)c1nc(-c2ccc(-c3ccc(-c4c[nH]c([C@@H](NC(=O)C5(CO)CC(F)(F)C5)C(C)(C)C)n4)cc3)cc2)c[nH]1` [Compound N-153] the figure was >100 fold; with `Cc1ccc(S(=O)(=O)NC(c2nc(-c3ccc(-c4ccc(-c5c[nH]c(C(NS(=O)(=O)c6ccc(C)cc6)C(C)(C)C)n5)cc4)cc3)c[nH]2)C(C)(C)C)cc1` [Compound L-117], >100 fold.
As to `CCOC(=O)N[C@H](c1ncc(-c2ccc(-c3ccc(-c4cnc([C@@H](NC(=O)OCC)C(C)C)[nH]4)cc3)cc2)[nH]1)C(C)C` [Compound S-207], the “Fold-Synergistic 1a (Q30E)” value is listed as >10 fold.
As to `CC(C)(C)[C@H](NC(=O)C1CCC(F)(F)CC1)c1nc2ccc3cc(-c4ccc5c(ccc6nc([C@@H](NC(=O)C7CCC(F)(F)CC7)C(C)(C)C)[nH]c65)c4)ccc3c2[nH]1` [Compound B25], the “Fold-Synergistic 1a (Q30E)” value is reported as >100 fold.
With `Cc1cc(-c2ccc(-c3c[nH]c([C@@H](NC(=O)C4CC(F)(F)C4)C(C)C)n3)cc2)ccc1-c1c[nH]c([C@@H](NC(=O)C2CC(F)(F)C2)C(C)C)n1.O=C(O)C(F)(F)F` [Compound N-78], the “Fold-Synergistic 1a (Q30E)” value is >100 fold.
Take `CC(C)(C)[C@H](NC(=O)C1(C2(O)CCC(F)(F)CC2)CC1)c1nc2ccc(C#Cc3ccc4nc([C@@H](NC(=O)C5(C6(O)CCC(F)(F)CC6)CC5)C(C)(C)C)[nH]c4c3)cc2[nH]1.O=C(O)C(F)(F)F` [Compound B41B]: the “Fold-Synergistic 1a (Q30E)” value is given as >100 fold.
With `COc1ncccc1C(=O)N[C@H](c1ncc(-c2ccc(-c3ccc(-c4cnc([C@@H](NC(=O)c5cccnc5OC)C(C)C)[nH]4)cc3)cc2)[nH]1)C(C)C` [Compound S-52] the figure was >100 fold; with `CC1(C(=O)N[C@H](c2nc(-c3ccc(-c4ccc(-c5c[nH]c([C@@H](NC(=O)C6(C)CCCCC6O)C(C)(C)C)n5)cc4)cc3)c[nH]2)C(C)(C)C)CCCCC1O` (single isomer, unassigned) [Compound Y-104], >100 fold; with `O=C(c1ccccc1Oc1ccccc1)N1CCC[C@H]1c1ncc(-c2ccc(-c3ccc(-c4cnc([C@@H]5CCCN5C(=O)c5ccccc5Oc5ccccc5)[nH]4)cc3)cc2)[nH]1` [Compound S-114], <10 fold.
As to `CC(C)(C)[C@H](NC(=O)C1CC12CCOCC2)c1ncc(-c2ccc(-c3ccc(-c4cnc([C@@H](NC(=O)C5CC56CCOCC6)C(C)(C)C)[nH]4)cc3)cc2)[nH]1` (single isomer, unassigned) [Compound B72], the “Fold-Synergistic 1a (Q30E)” value was >100 fold.
Under `CC(C)C(NC(=O)C1C2CC2CN1C(=O)OC(C)(C)C)c1nc(-c2ccc(-c3ccc(-c4c[nH]c(C(NC(=O)C5C6CC6CN5C(=O)OC(C)(C)C)C(C)C)n4)cc3)cc2)c[nH]1` (stereo not shown) [Compound W-74] stands >100 fold.
For `COc1ccc2cc([C@@H](C)C(=O)N[C@H](c3nc(-c4ccc(-c5ccc(-c6c[nH]c([C@@H](NC(=O)[C@H](C)c7ccc8cc(OC)ccc8c7)C(C)(C)C)n6)cc5)cc4)c[nH]3)C(C)(C)C)ccc2c1` [Compound S-254], the “Fold-Synergistic 1a (Q30E)” value is >100 fold.
With `CC(C)(C(=O)N[C@H](c1nc(-c2ccc(-c3ccc(-c4cnc([C@@H](NC(=O)C(C)(C)C5CCOC5)C(C)(C)C)[nH]4)cc3)cc2)c[nH]1)C(C)(C)C)C1CCOC1` (stereo partly shown) [Compound B-168] the figure was >100 fold; with `CC(O)C1(C(=O)N[C@H](c2ncc(-c3ccc(-c4ccc(-c5cnc([C@@H](NC(=O)C6(C(C)O)CC6)C(C)(C)C)[nH]5)cc4)cc3)[nH]2)C(C)(C)C)CC1` (single isomer, unassigned) [Compound B75], >100 fold; with `C=C1C[C@@H](C(=O)N[C@H](c2nc(-c3ccc(-c4ccc(-c5c[nH]c([C@@H](NC(=O)[C@@H]6CC(=C)CN6C(=O)OC(C)(C)C)C(C)(C)C)n5)cc4)cc3)c[nH]2)C(C)(C)C)N(C(=O)OC(C)(C)C)C1` [Compound W-91], >100 fold.
On to `CC(C)CC(=O)NC1(c2ncc(-c3ccc(-c4ccc(-c5cnc(C6(NC(=O)CC(C)C)CCC6)[nH]5)cc4)cc3)[nH]2)CCC1.O=C(O)C(F)(F)F.O=C(O)C(F)(F)F` [Compound N-11], for which the “Fold-Synergistic 1a (Q30E)” value is <10 fold.
